In US4012284A (Societa' Farmaceutici Italia, S.p.A., priority 1962, dated 1977):

Legend:
Walker carcinosarcoma [1] = test: Walker carcinosarcoma in rats, second experiment (Table IX); type: in vivo, rat; conditions: 3 mg/kg/day intravenously
Experimental: (§1) At least 20 animals per lot were used.
(§2) The checking of the activity on solid tumors has been carried out with Ehrlich adenocarcinoma and sarcoma 180 in the mouse and with Walker carcinosarcoma and the Oberling-Guerin-Guerin myeloma in the rat.
A second experiment with rats, bearing the same tumor, has been carried out to investigate the effect of the antibiotic on the animals' survival besides the antitumor activity. In this case the rats were treated intravenously 8 times within 12 days at the dose of 3 mg/kg/day.

Solubility = type: physicochemical
[2] = test system: Oberling-Guerin-Guerin myeloma; test: Oberling-Guerin-Guerin myeloma (solid) in rats, successive experiment (Table XI); type: in vivo, rat
Description: as §1
The checking of the activity on solid tumors has been carried out with Ehrlich adenocarcinoma and sarcoma 180 in the mouse and with Walker carcinosarcoma and the Oberling-Guerin-Guerin myeloma in the rat. […]

Hepatoma AH 130 = test: Ascitic hepatoma AH 130 in Wistar rats; type: in vivo, Wistar rat; conditions: 2 and 1 mg/kg/day intraperitoneally, 5 days, after 50 days of the experiment
Experimental: as §1
(§3) Activity tests were carried out on mice, bearing Ehrlich ascitic carcinoma and on rats, which are grafted with hepatoma AH 130 and Oberling-Guerin-Guerin myeloma.
Wistar rats, grafted with accitic hepatoma have been treated intraperitoneously for 5 consecutive days with antibiotic doses of 2 and 1 mg/kg/day.

Acute toxicity, mouse = conditions: in vivo
Description: In the following Table the acute toxicity of Daunomycin as LD50 is reported.

[3] = test system: Oberling-Guerin-Guerin myeloma; test: Oberling-Guerin-Guerin myeloma (solid) in Long-Evans rats (Table X); conditions: 10 days; for % Inhibition (tumor growth) / Average tumor weight: 13th day; for Average tumor weight: controls 17.23; for Mortality: controls 3/12; for Body weight change, not [net]: controls +28.-; for Body weight change, gross: controls +45.2
[4] = test system: Ehrlich ascitic carcinoma; test: Ehrlich ascitic carcinoma, second experiment, intravenous (Table IV); type: in vivo, mouse; conditions: 1.75 mg/kg/day intravenously, 4 days
Experimental: as §1, §3
(§4) Mice are grafted intraporitoneally with a suspension of tumor cells and treated with solutions of different concentrations of the antibiotic for five consecutive days starting from the day following the tumor implantation.
The result has been confirmed by a successive experiment in which the antibiotic has been administered at the dose of 1.75 mg/kg intravenously for 4 days (Table IV).

[5] = test system: tumors, ascitic and solid; test: Antitumor activity on standard experimental animals (summary statements); type: in vivo, mouse and rat
Description: as §1

Ehrlich adenocarcinoma = Ehrlich adenocarcinoma (solid) in mice (Table VI); type: in vivo, mouse; conditions: for Body weight change, not [net]: controls +2.27; for Body weight change, gross: controls +4.85; for % Inhibition (tumor growth) / Average tumor weight: eighth day; for Average tumor weight: controls 2.583
Description: as §1, §2
Mice grafted with a fragment of tumor subcutaneously for 6 days starting from the day after the transplantation have been treated with a solution of the antibiotic. At the eighth day of experiment all the animals were killed and the tumor was removed and weighed.

several microorganisms = test: Bacteriostatic activity / antimicrobial spectrum (summary statements); type: cell-based
[6] = test system: Ascitic myeloma (Oberling-Guerin-Guerin myeloma); test: Ascitic myeloma (Oberling-Guerin-Guerin) in Wistar rats (Table V); type: in vivo, rat; conditions: for Average survival time: controls 10.7
Experimental: as §1, §3
This experiment was carried out on Wister rats, which have been grafted with a suspension of tumor cells and then have been treated intraperitoneously with a solution of the antibiotic according to the following scheme: one group three times on alternate days with a dose equal to 2 mg/kg/day; another group for 5 consecutive days with a dose of 1 mg/kg/day.

Walker carcinosarcoma [7] = test: Walker carcinosarcoma in rats (Table VIII); type: in vivo, rat; conditions: for % Inhibition (tumor growth) / Average tumor weight / Mortality / Body weight change, not [net] / Body weight change, gross: 8 times within 10 days; for % Inhibition (tumor growth) / Average tumor weight: 11th day; for Average tumor weight: controls 15.940; for Mortality: controls 1/10; for Body weight change, not [net]: controls +6.96; for Body weight change, gross: controls +22.9
Description: as §1, §2
The rats grafted with this tumor have been treated intravenously 8 times within 10 days; at the 11th day of experiment, the surviving animals were killed and the tumors removed.

[8] = test system: Ehrlich ascitic carcinoma; test: Ehrlich ascitic carcinoma in mice (Table III); type: in vivo, mouse; conditions: for Body weight increase / Average survival time: 5 days; for Average survival time: controls 16.4
Experimental: as §1, §3, §4

Sarcoma 180 = Sarcoma 180 (solid) in mice (Table VII); type: in vivo, mouse; conditions: 2 mg/kg/day intraperitoneally, 7 days
Experimental: as §1, §2
Mice grafted with a fragment of neoplastic tissue have been treated intraperitoneally for seven consecutive days, starting from the day following the tumor implantation. The antibiotic was administered in solution at a dose of 2 mg/kg/day. At the tenth day of experiment, all the mice were killed and the tumors and spleens were removed.

[9] = 2.5 mg/kg/day intravenously, 7 times within 14 days

## COc1cccc2c1C(=O)c1c(O)c3c(c(O)c1C2=O)C[C@@](O)(C(C)=O)C[C@@H]3O[C@H]1C[C@H](N)[C@H](O)[C@H](C)O1 [F.I. 1762]
Walker carcinosarcoma [1]; 8 times within 12 days
  increase of average survival: 50.8%
Walker carcinosarcoma [1]; 8 times within 12 days, 9th day
  Tumor growth inhibition: 71.0 % of the control
Walker carcinosarcoma [1]; 8 times within 12 days, 29th day
  Tumor growth inhibition: 31.6 % of the control
Walker carcinosarcoma [1]; 8 times within 12 days, controls 16.9
  Average survival time: 25.5 days
Walker carcinosarcoma [1]; 20 days after the injections were stopped
  tumor growth inhibition (in words): still continues in a remarkable degree
Walker carcinosarcoma [1]; during the treatment
  tumor growth inhibition (in words): considerable during the treatment
Solubility; in alcohols, ketones, halogenated hydrocarbons, aqueous solutions of organic and inorganic acids
  solubility: soluble
Solubility; in ethers and saturated hydrocarbons
  solubility: practically insoluble
Solubility; water
  solubility in water: slightly soluble
[2]; [9]
  % Inhibition, spleen: 54.1%
  % Inhibition, tumor: 69.5%
[2]; 2.5 mg/kg/day intravenously, 7 times within 14 days, controls 1.303
  Average weight, spleen: 0.598 grams
[2]; 2.5 mg/kg/day intravenously, 7 times within 14 days, controls 5/15
  Mortality: 5/15
[2]; 2.5 mg/kg/day intravenously, 7 times within 14 days, controls 13.486
  Average weight, tumor: 4.114 grams
[2]; 2.5 mg/kg/day intravenously, 7 times within 14 days, controls +40.22
  Body weight change, not [net]: +16.79 grams
[2]; 2.5 mg/kg/day intravenously, 7 times within 14 days, controls +53.7
  Body weight change, gross: +20.9 grams
[2]; Tables X and XI, 2 mg and 2.5 mg/kg/day intravenously
  tolerance of the antibiotic: good tolerance
[2]; Tables X and XI, 2 mg and 2.5 mg/kg/day intravenously produced the best results
  activity against this kind of tumor: active also against this kind of tumor
Hepatoma AH 130
  trace of tumor: In none of them was any trace of tumor noticed
Hepatoma AH 130; controls average survival 11.8 days
  survival of treated rats: all the treated rats were still alive after 50 days of the experiment
Acute toxicity, mouse; intravenous
  LD50: 20 mg/kg
Acute toxicity, mouse; ip, intraperitoneal
  LD50: 5 mg/kg
[3]; 2 mg/kg/day intravenously
  % Inhibition (tumor growth): 34.5%
  Average tumor weight: 11.30 grams
  Mortality: 0/12
  Body weight change, not [net]: +20 grams
  Body weight change, gross: +33.3 grams
[3]; 4 mg/kg/day intravenously
  % Inhibition (tumor growth): 82.8%
  Average tumor weight: 2.98 grams
  Mortality: 4/12
  Body weight change, not [net]: +0.8 grams
  Body weight change, gross: +3.8 grams
[4]; 7 days after implantation, controls +6.3
  Body weight increase: +0.1 grams
[4]; 12 days after implantation, controls +14.2
  Body weight increase: +2.2 grams
[4]; controls 12.4
  Average survival time: 35.1 days
[5]; activity differs according to administration route and dose
  effect in solid tumors: Good inhibiting effect
[5]; immediate contact of the antibiotic and the neoplastic cells
  effect on the tumor growth in ascitic form: marked inhibitory effect on the tumor growth in ascitic form
[5]; intravenous, doses between 2 and 3 mg/kg/body weight day
  results by route and dose: best results
[5]; standard experimental animals
  usefulness as antitumoral: particularly useful as antitumoral
Ehrlich adenocarcinoma; 3 mg/kg/day
  Body weight change, not [net]: +1.59 grams
  Body weight change, gross: +3.84 grams
  % Inhibition (tumor growth): 12%
  Average tumor weight: 2.253 grams
Ehrlich adenocarcinoma; 6 mg/kg/day
  Body weight change, not [net]: +1.07 grams
  Body weight change, gross: +2.59 grams
  % Inhibition (tumor growth): 41.1%
  Average tumor weight: 1.522 grams
Several microorganisms
  antimicrobial spectrum: embraces grampositive, gram-negative bacteria, fungi and protozoa
  bacteriostatic activity against several microorganisms: remarkable bacteriostatic activity against several microorganisms
[6]; 1 mg/kg/day intraperitoneally, 5 consecutive days
  Average survival time: 16.7 days
[6]; 2 mg/kg/day intraperitoneally, three times on alternate days
  Average survival time: 17.7 days
[6]; 2 mg/kg/day x 3 or 1 mg/kg/day x 5, intraperitoneally
  diffusion of the tumor: a delay in the diffusion of the tumor has been observed
Walker carcinosarcoma [7]; 1 mg/kg/day intravenously
  % Inhibition (tumor growth): 42.1%
  Average tumor weight: 9.443 grams
  Mortality: 1/10
  Body weight change, not [net]: +0.76 grams
  Body weight change, gross: +10.2 grams
Walker carcinosarcoma [7]; 2 mg/kg/day intravenously
  tolerance: tolerated
  % Inhibition (tumor growth): 66.1%
  Average tumor weight: 5.404 grams
  Mortality: 1/10
  Body weight change, not [net]: +22.25 grams
  Body weight change, gross: +27.9 grams
Walker carcinosarcoma [7]; especially with 2 mg/kg/day intravenously
  effect on this type of tumor: marked inhibitory effect
[8]; 0.75 mg/kg/day, 7 days after implantation, controls +9.6
  Body weight increase: +2.9 grams
[8]; 0.75 mg/kg/day, 14 days after implantation, controls +21.4
  Body weight increase: +5.3 grams
[8]; 1.25 mg/kg/day, 7 days after implantation, controls +9.6
  Body weight increase: +1.5 grams
[8]; 1.25 mg/kg/day, 14 days after implantation, controls +21.4
  Body weight increase: +3.1 grams
[8]; 1.25 mg/kg/day, 21 days after implantation
  Body weight increase: +4.4 grams
[8]; 1.25 mg/kg/day
  Average survival time: 32.0 days
[8]; 1.75 mg/kg/day, 7 days after implantation, controls +9.6
  Body weight increase: +1.3 grams
[8]; 1.75 mg/kg/day, 14 days after implantation, controls +21.4
  Body weight increase: +2.4 grams
[8]; 1.75 mg/kg/day, 21 days after implantation
  Body weight increase: +4.7 grams
[8]; 1.75 mg/kg/day
  Average survival time: 36.4 days
[8]; 1.75 and 1.25 mg/kg/day
  average survival rate of the treated animals: increased considerably
  effect on the ascitic tumor growth: remarkable inhibitory effect on the ascitic tumor growth
Sarcoma 180
  spleen: marked shrinkage of the spleen
  tumor growth: marked inhibition of tumor growth
Sarcoma 180; controls 0/10
  Mortality: 0/10
Sarcoma 180; controls +2.83
  Body weight change, not [net]: -3.01 grams
Sarcoma 180; controls +5.05
  Body weight change, gross: -1.72 grams
Sarcoma 180; tenth day
  % Inhibition, spleen: 62.7%
  % Inhibition, tumor: 42.1%
Sarcoma 180; tenth day, controls 2.225
  Average weight, tumor: 1.289 grams
Sarcoma 180; tenth day, controls 251
  Average weight, spleen: 93.5 milligrams
